Experiments:
[1] = target: T1, Adenine DNA glycosylase (Homo sapiens) (UniProt Q9UIF7); conditions: Hit No;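 also: human MUTYH activity read as 594 nm fluorescence from cleavage and release of a quenched DNA duplex, coupled with APE1 for strand incision, lower signal meaning inhibition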
T1 sequence (whole entry): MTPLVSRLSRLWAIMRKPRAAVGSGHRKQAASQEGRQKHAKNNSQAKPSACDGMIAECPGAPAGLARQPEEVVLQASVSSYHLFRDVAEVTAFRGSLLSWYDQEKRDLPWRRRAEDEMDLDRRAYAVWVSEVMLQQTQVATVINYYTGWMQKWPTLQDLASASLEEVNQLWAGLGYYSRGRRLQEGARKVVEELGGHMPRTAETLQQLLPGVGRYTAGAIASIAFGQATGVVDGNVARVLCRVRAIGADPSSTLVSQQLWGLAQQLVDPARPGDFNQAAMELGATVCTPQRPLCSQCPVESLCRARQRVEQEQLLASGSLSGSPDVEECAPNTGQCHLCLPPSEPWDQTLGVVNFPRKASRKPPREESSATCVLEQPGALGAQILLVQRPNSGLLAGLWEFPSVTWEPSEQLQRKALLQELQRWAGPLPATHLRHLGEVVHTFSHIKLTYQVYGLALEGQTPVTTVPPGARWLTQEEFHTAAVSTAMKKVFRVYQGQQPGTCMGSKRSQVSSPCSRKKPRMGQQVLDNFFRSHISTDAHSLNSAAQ
Description: Inhibition of MUTYH by quantifying inhibition of MUTYH-mediated cleavage and dissociation of quenched duplex DNA oligonucleotides, measured as fluorescence at 594 nm. To generate a functional strand incision and increase turn-over this assay is coupled to APE1.

[2] = target: Endonuclease 8-like 1 (Homo sapiens) (UniProt Q96FI4); conditions: Hit No;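 also: fluorescence at 594 nm from quenched duplex DNA oligonucleotides released by NEIL1 cleavage and strand separation, reported as reduction of this enzyme activity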
Description: Inhibition of NEIL1 by quantifying inhibition of NEIL1-mediated cleavage and dissociation of quenched duplex DNA oligonucleotides, measured as fluorescence at 594 nm.

[3] = target: T2, Endonuclease 8-like 2 (Homo sapiens) (UniProt Q969S2); conditions: Compound Concentration 10.0 uM;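 also: fluorescence at 594 nm reports NEIL2 cutting and release of a quenched double-stranded DNA oligo substrate, reduced signal read as inhibition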
T2 sequence (whole entry): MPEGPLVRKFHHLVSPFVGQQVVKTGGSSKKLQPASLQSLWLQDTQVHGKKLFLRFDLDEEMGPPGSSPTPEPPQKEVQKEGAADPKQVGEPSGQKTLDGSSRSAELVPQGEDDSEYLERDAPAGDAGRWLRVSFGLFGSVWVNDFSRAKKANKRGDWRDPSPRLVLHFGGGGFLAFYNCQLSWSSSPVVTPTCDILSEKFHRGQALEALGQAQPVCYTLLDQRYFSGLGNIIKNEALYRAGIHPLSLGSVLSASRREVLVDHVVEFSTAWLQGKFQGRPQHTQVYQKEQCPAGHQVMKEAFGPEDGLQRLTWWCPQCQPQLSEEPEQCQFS
Description: Inhibition of NEIL2 by quantifying inhibition of NEIL2-mediated cleavage and dissociation of quenched duplex DNA oligonucleotides, measured as fluorescence at 594 nm.

[4] = target: T3, Endonuclease III-like protein 1 (Homo sapiens) (UniProt P78549); conditions: Hit No;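 also: enzyme assay tracking NTHL1 cutting and release of a quenched double-stranded DNA oligo substrate, read as fluorescence at 594 nm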
T3 sequence (whole entry): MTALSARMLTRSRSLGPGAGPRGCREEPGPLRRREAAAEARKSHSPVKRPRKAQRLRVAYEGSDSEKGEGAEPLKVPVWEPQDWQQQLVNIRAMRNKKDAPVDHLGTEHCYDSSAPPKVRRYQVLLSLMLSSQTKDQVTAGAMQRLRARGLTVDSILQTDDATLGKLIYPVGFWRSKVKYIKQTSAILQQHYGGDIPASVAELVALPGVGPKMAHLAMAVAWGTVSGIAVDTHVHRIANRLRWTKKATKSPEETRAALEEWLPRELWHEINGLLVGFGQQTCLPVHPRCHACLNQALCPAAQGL
Description: Inhibition of NTHL1 by quantifying inhibition of NTHL1-mediated cleavage and dissociation of quenched duplex DNA oligonucleotides, measured as fluorescence at 594 nm.

[5] = target: N-glycosylase/DNA lyase (Homo sapiens) (UniProt O15527);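 also: OGG1 cleavage of a quenched duplex DNA oligonucleotide, coupled to APE1 for strand incision, read as fluorescence at 594 nm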
Description: Inhibition of OGG1 by quantifying inhibition of OGG1-mediated cleavage and dissociation of quenched duplex DNA oligonucleotides, measured as fluorescence at 594 nm. To generate a functional strand incision and increase turn-over this assay is coupled to APE1.

[6] = target: G/T mismatch-specific thymine DNA glycosylase (Homo sapiens) (UniProt Q13569); conditions: Hit No;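 also: human TDG cleavage of quenched duplex DNA oligonucleotides coupled to APE1, strand release read as fluorescence at 594 nm, inhibition of TDG activity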
Description: Inhibition of TDG by quantifying inhibition of TDG-mediated cleavage and dissociation of quenched duplex DNA oligonucleotides, measured as fluorescence at 594 nm. To generate a functional strand incision and increase turn-over this assay is coupled to APE1.

[7] = target: Methyl-CpG-binding domain protein 4 (Homo sapiens) (UniProt O95243); conditions: Compound Concentration 10.0 uM, Hit No;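 also: MBD4 activity read as fluorescence at 594 nm from cleavage and release of a quenched duplex DNA oligonucleotide, with APE1 coupled to incise the strand and raise turnover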
Description: Inhibition of MBD4 by quantifying inhibition of MBD4-mediated cleavage and dissociation of quenched duplex DNA oligonucleotides, measured as fluorescence at 594 nm. To generate a functional strand incision and increase turn-over this assay is coupled to APE1.

[8] = target: Uracil-DNA glycosylase (Homo sapiens) (UniProt P13051); conditions: Hit No;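 also: UNG excision on a quenched double-stranded DNA oligo probe, with APE1 added for strand incision and turnover, read as fluorescence at 594 nm as strands separate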
Description: Inhibition of UNG by quantifying inhibition of UNG-mediated cleavage and dissociation of quenched duplex DNA oligonucleotides, measured as fluorescence at 594 nm. To generate a functional strand incision and increase turn-over this assay is coupled to APE1.

[9] = target: T4, Single-strand selective monofunctional uracil DNA glycosylase (Homo sapiens) (UniProt Q53HV7); conditions: Hit No;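 also: enzymatic SMUG1 assay coupled with APE1, reading fluorescence at 594 nm released when a quenched double-stranded DNA oligonucleotide substrate is cleaved and separated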
T4 sequence (whole entry): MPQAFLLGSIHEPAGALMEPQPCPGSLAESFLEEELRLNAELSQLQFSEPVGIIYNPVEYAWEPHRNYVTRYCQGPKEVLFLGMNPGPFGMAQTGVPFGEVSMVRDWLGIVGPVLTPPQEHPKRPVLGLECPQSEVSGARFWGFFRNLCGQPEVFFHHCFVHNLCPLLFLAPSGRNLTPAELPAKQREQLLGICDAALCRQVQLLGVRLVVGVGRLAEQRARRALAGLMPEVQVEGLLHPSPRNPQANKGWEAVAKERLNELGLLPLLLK
Description: Inhibition of SMUG1 by quantifying inhibition of SMUG1-mediated cleavage and dissociation of quenched duplex DNA oligonucleotides, measured as fluorescence at 594 nm. To generate a functional strand incision and increase turn-over this assay is coupled to APE1.

[10] = Compound Concentration 10.0 uM, Hit No

Chain of G/T mismatch-specific thymine DNA glycosylase (Homo sapiens) (Q13569 whole entry, the tested form may be a part): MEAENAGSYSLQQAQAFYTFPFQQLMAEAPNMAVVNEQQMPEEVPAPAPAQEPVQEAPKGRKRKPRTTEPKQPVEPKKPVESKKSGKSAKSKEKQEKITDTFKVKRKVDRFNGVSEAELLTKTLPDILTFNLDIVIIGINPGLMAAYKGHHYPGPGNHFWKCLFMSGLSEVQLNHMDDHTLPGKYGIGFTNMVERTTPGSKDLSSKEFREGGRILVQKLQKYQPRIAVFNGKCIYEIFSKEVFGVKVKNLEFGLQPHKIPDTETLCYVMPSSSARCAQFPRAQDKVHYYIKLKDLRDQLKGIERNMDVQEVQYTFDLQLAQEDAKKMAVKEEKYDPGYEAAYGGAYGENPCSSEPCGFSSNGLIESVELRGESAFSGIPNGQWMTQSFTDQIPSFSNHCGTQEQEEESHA
Chain of Uracil-DNA glycosylase (Homo sapiens) (P13051 whole entry): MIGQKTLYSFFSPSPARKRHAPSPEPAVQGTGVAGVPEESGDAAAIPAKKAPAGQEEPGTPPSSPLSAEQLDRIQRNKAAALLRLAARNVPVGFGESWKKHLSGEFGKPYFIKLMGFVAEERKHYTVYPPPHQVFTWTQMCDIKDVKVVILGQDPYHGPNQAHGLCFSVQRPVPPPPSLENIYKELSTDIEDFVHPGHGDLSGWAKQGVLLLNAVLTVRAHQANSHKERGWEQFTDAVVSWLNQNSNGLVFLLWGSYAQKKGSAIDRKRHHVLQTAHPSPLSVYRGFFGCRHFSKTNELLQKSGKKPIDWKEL
Chain of N-glycosylase/DNA lyase (Homo sapiens) (O15527 whole entry): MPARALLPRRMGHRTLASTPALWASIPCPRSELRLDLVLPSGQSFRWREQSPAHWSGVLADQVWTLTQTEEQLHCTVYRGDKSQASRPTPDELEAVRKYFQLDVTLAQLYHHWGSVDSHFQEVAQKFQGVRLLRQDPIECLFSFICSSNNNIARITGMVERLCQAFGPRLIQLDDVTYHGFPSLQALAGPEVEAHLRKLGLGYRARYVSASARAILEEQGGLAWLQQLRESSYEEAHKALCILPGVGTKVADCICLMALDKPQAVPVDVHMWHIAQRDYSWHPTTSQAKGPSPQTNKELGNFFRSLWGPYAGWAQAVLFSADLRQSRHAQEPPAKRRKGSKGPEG
Chain of Endonuclease 8-like 1 (Homo sapiens) (Q96FI4 whole entry): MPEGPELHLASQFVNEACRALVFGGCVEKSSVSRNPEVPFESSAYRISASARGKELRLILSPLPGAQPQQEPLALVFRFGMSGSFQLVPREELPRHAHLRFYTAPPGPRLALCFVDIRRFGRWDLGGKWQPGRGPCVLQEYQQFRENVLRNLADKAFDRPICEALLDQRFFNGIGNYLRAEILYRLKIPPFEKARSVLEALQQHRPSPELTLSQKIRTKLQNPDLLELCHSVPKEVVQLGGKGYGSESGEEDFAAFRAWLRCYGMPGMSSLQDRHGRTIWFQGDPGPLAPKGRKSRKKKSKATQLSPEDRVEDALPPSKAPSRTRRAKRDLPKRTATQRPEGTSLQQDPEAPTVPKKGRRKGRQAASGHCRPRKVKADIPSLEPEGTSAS
Chain of Methyl-CpG-binding domain protein 4 (Homo sapiens) (O95243 whole entry, the tested form may be a part): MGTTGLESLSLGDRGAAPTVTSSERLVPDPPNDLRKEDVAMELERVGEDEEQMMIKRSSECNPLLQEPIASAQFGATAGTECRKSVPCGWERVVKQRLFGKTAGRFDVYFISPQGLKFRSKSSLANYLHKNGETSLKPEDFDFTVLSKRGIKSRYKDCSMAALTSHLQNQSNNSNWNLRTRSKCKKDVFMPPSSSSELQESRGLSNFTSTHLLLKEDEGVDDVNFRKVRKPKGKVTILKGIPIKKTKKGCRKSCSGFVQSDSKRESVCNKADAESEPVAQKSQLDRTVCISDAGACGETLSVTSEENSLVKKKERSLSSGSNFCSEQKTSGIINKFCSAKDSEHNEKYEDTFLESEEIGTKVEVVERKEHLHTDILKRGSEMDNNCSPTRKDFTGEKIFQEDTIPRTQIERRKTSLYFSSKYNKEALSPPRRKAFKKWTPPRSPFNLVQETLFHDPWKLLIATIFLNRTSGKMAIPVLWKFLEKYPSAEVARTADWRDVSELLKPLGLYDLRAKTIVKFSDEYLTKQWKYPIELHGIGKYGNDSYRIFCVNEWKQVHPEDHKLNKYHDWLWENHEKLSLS

Row | SMILES | inhibition ([1]; Compound Concentration 10.0 uM) [%] | inhibition ([2]; Compound Concentration 10.0 uM) [%] | inhibition ([3]; Hit No) [%] | inhibition ([4]; Compound Concentration 10.0 uM) [%] | inhibition [5, 10] [%] | inhibition ([6]; Compound Concentration 10.0 uM) [%] | inhibition [7] [%] | inhibition ([5]; Compound Concentration 10.0 uM, Hit Yes) [%] | inhibition ([8]; Compound Concentration 10.0 uM) [%] | inhibition ([1]; Compound Concentration 1.0 uM) [%] | inhibition ([2]; Compound Concentration 1.0 uM) [%] | inhibition ([4]; Compound Concentration 1.0 uM) [%] | inhibition ([5]; Compound Concentration 1.0 uM, Hit No) [%] | inhibition ([9]; Compound Concentration 1.0 uM) [%] | inhibition ([6]; Compound Concentration 1.0 uM) [%] | inhibition ([8]; Compound Concentration 1.0 uM) [%] | inhibition ([9]; Compound Concentration 10.0 uM) [%] | inhibition ([3]; Hit Yes) [%]
1 | CCC(=O)NC[C@@H]1C[C@H]1c1cccc2c1CCO2 | 2.71 | 4.24 | -7.72 | -4.67 | 1.29 | 4.27 | – | – | – | – | – | – | – | – | – | – | – | –
2 | CC(=O)NCCc1c(Cc2ccccc2)[nH]c2ccccc12 | 0.533 | 4.1 | 3.51 | 2.66 | -9.93 | 16.3 | – | – | – | – | – | – | – | – | – | – | – | –
3 | N#Cc1c(N)nc(SCc2csc(-c3ccc(Cl)cc3)n2)c(C#N)c1-c1ccc(OCCO)cc1 | 7.45 | – | – | 4.7 | – | 6.03 | -6.16 | 55.1 | -1.02 | – | – | – | – | – | – | – | – | –
4 | CNc1nc(Nc2cnn([C@H]3CCN(C4COC4)C[C@@H]3F)c2Cl)ncc1C(F)(F)F | – | – | – | – | – | – | – | – | – | -1.03 | -2.24 | -6.19 | -2.93 | 15 | 39.4 | 2.4 | – | –
5 | CS(=O)(=O)NC[C@H]1CC[C@H](Nc2nc3c(s2)CCSc2ccccc2-3)CC1 | -5.74 | -5.25 | 8.25 | 34.9 | -8.83 | 2.85 | – | – | -8.36 | – | – | – | – | – | – | – | -4.83 | –
6 | COc1ccccc1CN[C@H]1C2CCN(CC2)[C@H]1C(c1ccccc1)c1ccccc1 | 11.2 | -4.06 | -6.97 | -5.41 | -6.59 | 0.738 | – | – | -4.4 | – | – | – | – | – | – | – | – | –
7 | COc1ccc(Oc2cc(NCCC(F)(F)F)c3ncc(-c4ccc(C(=O)NC5CC5)c(C)c4)n3n2)c(F)c1F | -2.54 | – | – | -2 | – | 93.1 | – | – | 0.303 | – | – | – | – | – | – | – | 5.15 | –
8 | CN(C)C/C=C/C(=O)Nc1cc2c(Nc3ccc(F)c(Cl)c3)ncnc2cc1O[C@H]1CCOC1 | – | – | – | – | – | – | – | – | – | 19.4 | – | 4.97 | – | -1.31 | 46.9 | -1.9 | – | –
9 | CNC(=O)Nc1ccc(-c2nc(N3CC4CCC(C3)O4)c3cnn(C4CCC5(CC4)OCCO5)c3n2)cc1 | 5.83 | 2.52 | – | 2.88 | – | 46.1 | – | – | 6.27 | – | – | – | – | – | – | – | 15.7 | –
10 | O=C(O)c1cc(-c2ccc(C3CCNCC3)cc2)c2ccc(-c3ccc(C(F)(F)F)cc3)cc2c1 | 10.9 | -1.45 | 1.86 | 2.15 | -4.86 | 20.1 | – | – | 0.968 | – | – | – | – | – | – | – | -1.19 | –
11 | CC(C)NCC(O)COc1cccc2ccccc12 (stereo unspecified) | 3.6 | -0.797 | – | 13.7 | – | 5.22 | – | – | -6.12 | – | – | – | – | – | – | – | 3.41 | 35
12 | Cc1cccc([C@H](C)c2c[nH]cn2)c1C | 5.65 | -5.1 | 7.25 | -4.67 | -7.75 | 18.4 | – | – | – | – | – | – | – | – | – | – | -5.51 | –
13 | CSCC[C@H](NC(=O)[C@H](Cc1ccccc1)NC(=O)[C@H](Cc1c[nH]cn1)NC(=O)CNC(=O)[C@@H](NC(=O)[C@H](C)NC(=O)[C@H](Cc1c[nH]c2ccccc12)NC(=O)[C@H](CC(C)C)NC(=O)[C@H](CC(N)=O)NC(=O)CN)[C@@H](C)O)C(N)=O | 11.4 | 10.5 | -6.21 | 8.82 | – | -7.68 | -1.83 | – | -8.29 | – | – | – | – | – | – | – | – | –
14 | Cn1cnc2c(F)c(Nc3ccc(Br)cc3Cl)c(C(=O)NOCCO)cc21 | -2.18 | 11.5 | – | -8.28 | – | 39.7 | – | – | -1.17 | – | – | – | – | – | – | – | 16.2 | –

Source: ChEMBL document CHEMBL5665443, “Enzyme Inhibitor Single Concentration assay results for EUbOPEN Chemogenomics Library” (2024)
